The supplement of paper PMC13207355

Experiments:
Conditions in all cases: exposure time: 72 h
E31 [1] = patient-derived glioblastoma stem cells of proneural subtype; experiment: phenotypic distance (Euclidean, principal components) from DMSO controls (arbitrary units); higher = stronger morphological change
E28 [2] = patient-derived glioblastoma stem cells of classical subtype; experiment: as above
FT3469 [3] = normal neural stem cell line; experiment: as above
E57 [4] = patient-derived glioblastoma stem cells of mesenchymal subtype; experiment: as above
E21 [5] = patient-derived glioblastoma stem cells of mesenchymal subtype; experiment: as above
E13 [6] = patient-derived glioblastoma stem cells of classical subtype; experiment: as above
E34 [7] = patient-derived glioblastoma stem cells of proneural subtype; experiment: as above
E31 [8] = experiment: surviving fraction (nuclei count normalised to DMSO); higher = more cells surviving (less toxic)
E28 [9] = experiment: as above
FT3469 [10] = experiment: as above
E57 [11] = experiment: as above
E21 [12] = experiment: as above
E13 [13] = experiment: as above
E34 [14] = experiment: as above
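For phenotypic distance (Euclidean, principal components) from DMSO controls in this document: cell Painting imaging in 384-well plates, CellProfiler features reduced to at least 20 principal components, Euclidean distance versus same-plate DMSO vehicle wells (0.1% v/v), median over six images per well.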
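For surviving fraction (nuclei count normalised to DMSO) in this document: nuclei counted by high-content imaging of Hoechst-stained cells in laminin-coated 384-well plates, relative to 0.1% DMSO vehicle wells, with staurosporine as cell-death control.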

CC1=C(/C=C/C(C)=C/C=C/C(C)=C/C(=O)Nc2ccc(O)cc2)C(C)(C)CCC1 [Retinoic acid p-hydroxyanilide]
Conditions	phenotypic distance	surviving fraction
E13 [6], 4.1 nM	0.545	–
E13 [6], 12.3 nM	0.333	–
E13 [6], 37 nM	0.641	–
E13 [6], 333.3 nM	3.32	–
E13 [6], 1000 nM	4.24	–
E13 [6], 3000 nM	9.85	–
E13 [13], 4.1 nM	–	0.963
E13 [13], 12.3 nM	–	0.967
E13 [13], 37 nM	–	1.09
E13 [13], 333.3 nM	–	1.07
E13 [13], 1000 nM	–	0.734
E13 [13], 3000 nM	–	0.00947
E21 [5], 4.1 nM	0.779	–
E21 [5], 12.3 nM	0.993	–
E21 [5], 37 nM	0.775	–
E21 [5], 333.3 nM	1.03	–
E21 [5], 1000 nM	2.42	–
E21 [5], 3000 nM	10.8	–
E21 [12], 4.1 nM	–	1.05
E21 [12], 12.3 nM	–	0.947
E21 [12], 37 nM	–	0.953
E21 [12], 333.3 nM	–	1.02
E21 [12], 1000 nM	–	0.781
E21 [12], 3000 nM	–	0.00532
E28 [2], 4.1 nM	0.643	–
E28 [2], 12.3 nM	0.734	–
E28 [2], 37 nM	0.511	–
E28 [2], 333.3 nM	0.842	–
E28 [2], 1000 nM	1.73	–
E28 [2], 3000 nM	19.3	–
E28 [9], 4.1 nM	–	1.11
E28 [9], 12.3 nM	–	0.963
E28 [9], 37 nM	–	1.13
E28 [9], 333.3 nM	–	1.08
E28 [9], 1000 nM	–	0.931
E28 [9], 3000 nM	–	0.00413
E31 [1], 4.1 nM	0.825	–
E31 [1], 12.3 nM	0.482	–
E31 [1], 37 nM	0.638	–
E31 [1], 333.3 nM	1.69	–
E31 [1], 1000 nM	2.86	–
E31 [1], 3000 nM	18.6	–
E31 [8], 4.1 nM	–	0.912
E31 [8], 12.3 nM	–	0.905
E31 [8], 37 nM	–	0.993
E31 [8], 333.3 nM	–	1.05
E31 [8], 1000 nM	–	0.927
E31 [8], 3000 nM	–	0.00743
E34 [7], 4.1 nM	0.884	–
E34 [7], 12.3 nM	0.569	–
E34 [7], 37 nM	0.817	–
E34 [7], 333.3 nM	1.4	–
E34 [7], 1000 nM	2.38	–
E34 [7], 3000 nM	19.6	–
E34 [14], 4.1 nM	–	1.28
E34 [14], 12.3 nM	–	1.05
E34 [14], 37 nM	–	0.937
E34 [14], 333.3 nM	–	1.08
E34 [14], 1000 nM	–	0.967
E34 [14], 3000 nM	–	0.00196
E57 [4], 4.1 nM	0.591	–
E57 [4], 12.3 nM	0.726	–
E57 [4], 37 nM	0.599	–
E57 [4], 333.3 nM	0.631	–
E57 [4], 1000 nM	1.92	–
E57 [4], 3000 nM	15.3	–
E57 [11], 4.1 nM	–	1.12
E57 [11], 12.3 nM	–	1.08
E57 [11], 37 nM	–	1.05
E57 [11], 333.3 nM	–	1.06
E57 [11], 1000 nM	–	1.03
E57 [11], 3000 nM	–	0.00394
FT3469 [3], 4.1 nM	0.589	–
FT3469 [3], 12.3 nM	0.564	–
FT3469 [3], 37 nM	0.708	–
FT3469 [3], 333.3 nM	1.89	–
FT3469 [3], 1000 nM	2.61	–
FT3469 [3], 3000 nM	17.7	–
FT3469 [10], 4.1 nM	–	1
FT3469 [10], 12.3 nM	–	1.04
FT3469 [10], 37 nM	–	1.04
FT3469 [10], 333.3 nM	–	0.89
FT3469 [10], 1000 nM	–	0.901
FT3469 [10], 3000 nM	–	0.0056

C/C=C1\NC(=O)[C@H]2CSSCC/C=C/[C@H](CC(=O)N[C@H](C(C)C)C(=O)N2)OC(=O)[C@H](C(C)C)NC1=O [Romidepsin]
Conditions	phenotypic distance	surviving fraction
E13 [6], 4.1 nM	4.99	–
E13 [6], 12.3 nM	4.79	–
E13 [6], 37 nM	4.79	–
E13 [6], 111.1 nM	5.03	–
E13 [6], 333.3 nM	4.51	–
E13 [6], 1000 nM	6.31	–
E13 [6], 3000 nM	8.31	–
E13 [13], 4.1 nM	–	0.219
E13 [13], 12.3 nM	–	0.212
E13 [13], 37 nM	–	0.191
E13 [13], 111.1 nM	–	0.211
E13 [13], 333.3 nM	–	0.169
E13 [13], 1000 nM	–	0.0814
E13 [13], 3000 nM	–	0.00947
E21 [5], 4.1 nM	6.02	–
E21 [5], 12.3 nM	7.55	–
E21 [5], 37 nM	7.46	–
E21 [5], 111.1 nM	6.75	–
E21 [5], 333.3 nM	7.68	–
E21 [5], 1000 nM	9.06	–
E21 [5], 3000 nM	20.2	–
E21 [12], 4.1 nM	–	0.102
E21 [12], 12.3 nM	–	0.0766
E21 [12], 37 nM	–	0.0713
E21 [12], 111.1 nM	–	0.0809
E21 [12], 333.3 nM	–	0.049
E21 [12], 1000 nM	–	0.00532
E21 [12], 3000 nM	–	0
E28 [2], 4.1 nM	4.95	–
E28 [2], 12.3 nM	5.55	–
E28 [2], 37 nM	5.4	–
E28 [2], 111.1 nM	4.65	–
E28 [2], 333.3 nM	5.39	–
E28 [2], 1000 nM	5.54	–
E28 [2], 3000 nM	6.46	–
E28 [9], 4.1 nM	–	0.157
E28 [9], 12.3 nM	–	0.153
E28 [9], 37 nM	–	0.138
E28 [9], 111.1 nM	–	0.194
E28 [9], 333.3 nM	–	0.17
E28 [9], 1000 nM	–	0.17
E28 [9], 3000 nM	–	0.0691
E31 [1], 4.1 nM	12.3	–
E31 [1], 12.3 nM	10.3	–
E31 [1], 37 nM	11	–
E31 [1], 111.1 nM	8.91	–
E31 [1], 333.3 nM	7.47	–
E31 [1], 1000 nM	18.1	–
E31 [1], 3000 nM	7.62	–
E31 [8], 4.1 nM	–	0.00149
E31 [8], 12.3 nM	–	0.0134
E31 [8], 37 nM	–	0.00446
E31 [8], 111.1 nM	–	0.00892
E31 [8], 333.3 nM	–	0.00594
E31 [8], 1000 nM	–	0.00446
E31 [8], 3000 nM	–	0.00892
E34 [7], 4.1 nM	8.64	–
E34 [7], 12.3 nM	7.96	–
E34 [7], 37 nM	9.03	–
E34 [7], 111.1 nM	8.78	–
E34 [7], 333.3 nM	7.71	–
E34 [7], 1000 nM	8.57	–
E34 [7], 3000 nM	7.26	–
E34 [14], 4.1 nM	–	0.302
E34 [14], 12.3 nM	–	0.292
E34 [14], 37 nM	–	0.271
E34 [14], 111.1 nM	–	0.359
E34 [14], 333.3 nM	–	0.286
E34 [14], 1000 nM	–	0.245
E34 [14], 3000 nM	–	0.1
E57 [4], 4.1 nM	8.58	–
E57 [4], 12.3 nM	7.79	–
E57 [4], 37 nM	9.5	–
E57 [4], 111.1 nM	9.16	–
E57 [4], 333.3 nM	8.37	–
E57 [4], 1000 nM	9.9	–
E57 [4], 3000 nM	11.1	–
E57 [11], 4.1 nM	–	0.062
E57 [11], 12.3 nM	–	0.0535
E57 [11], 37 nM	–	0.0389
E57 [11], 111.1 nM	–	0.0558
E57 [11], 333.3 nM	–	0.0428
E57 [11], 1000 nM	–	0.0349
E57 [11], 3000 nM	–	0.00732
FT3469 [3], 4.1 nM	3.71	–
FT3469 [3], 12.3 nM	2.82	–
FT3469 [3], 37 nM	3.47	–
FT3469 [3], 111.1 nM	2.86	–
FT3469 [3], 333.3 nM	3.77	–
FT3469 [3], 1000 nM	5.6	–
FT3469 [3], 3000 nM	8.06	–
FT3469 [10], 4.1 nM	–	0.237
FT3469 [10], 12.3 nM	–	0.267
FT3469 [10], 37 nM	–	0.31
FT3469 [10], 111.1 nM	–	0.274
FT3469 [10], 333.3 nM	–	0.321
FT3469 [10], 1000 nM	–	0.123
FT3469 [10], 3000 nM	–	0.0672
